Results as given in US8603527B2, “Pharmaceutical formulations of a substituted diaminopurine” (Signal Pharmaceuticals, LLC, priority 2010, dated 2013).

Columns and labels:
[1] = Oral developmental toxicity study in the rat; type: in vivo; settings: female, CD [Crl:CD(SD)], rat, in vivo, oral; rats; read-out: NOAEL for maternal toxicity
Procedure: (§1) Compound I was administered orally to four groups of 25 time-mated female CD®[Crl:CD®(SD)] rats/group at dose levels of 0 (vehicle, 1.0% carboxymethylcellulose/0.25% TWEEN® 80), 25, 50, or 100 mg/kg/day from Gestation Days (GD) 6 to 17. In addition, four groups of five time-mated females/group served as toxicokinetic (TK) animals and received the vehicle or test article in the same manner as the main study groups.

[2] = test system: time-mated female CD [Crl:CD(SD)] rats; experiment: Oral developmental toxicity study in the rat; type: in vivo
Procedure: as §1

healthy volunteers = experiment: Safety and tolerability of ascending multiple oral doses in healthy volunteers; type: in vivo, human
Procedure: Study Design: This study was a randomized, double-blind, placebo-controlled, ascending-dose trial to evaluate the safety, tolerability and pharmacokinetics (PK) of multiple oral doses of Compound I. Subjects were enrolled into 1 of the 4 cohorts, 10 subjects per cohort (active:placebo=8:2). Subjects received a multiple oral dose of 25, 50, 100, or 200 mg unformulated Compound I in a capsule, or matching placebo, once daily (QD) for 14 days.
Assessments: Safety and tolerability were assessed by adverse event (AE) monitoring, clinical laboratory testing, vital sign measurement, 12-lead ECG measurement, concomitant medication assessment, and physical examination. Blood and urine samples were collected to assess the PK profile of Compound I and the S-cis isomer of Compound I. Blood samples (˜5 mL) for plasma PK analysis were collected in K2-EDTA vacutainer tubes to yield approximately 2 mL of plasma at each of the following time points: (i) Day 1: before dosing, and 0.25, 0.5, 1, 1.5, 2, 2.5, 3, 4, 6, 8, 10, 12, 16, and 24 hours after dosing; (ii) Day 3 to Day 9: before dosing; (iii) Day 10: before dosing, and 0.25, 0.5, 1, 1.5, 2, 2.5, 3, 4, 6, 8, 10, 12, and 16 hours after dosing; (iv) Day 11 to Day 13: before dosing; (v) Day 14: before dosing, and 0.25, 0.5, 1, 1.5, 2, 2.5, 3, 4, 6, 8, 10, 12, 16, 24, 48, 72, 96, 120, 144, and 168 hours after dosing. Urine samples for the PK analysis were collected as a single block at: (i) Day 1: before dosing (spot collection), 0 to 8, 8 to 16, and 16 to 24 hours after dosing; and (ii) Day 14: 0 to 8, 8 to 16, and 16 to 24 hours after dosing. Both plasma and urine concentrations of Compound I and its S-cis isomer were measured using validated liquid chromatography-tandem mass spectrometry (LC/MS/MS).
Data Analysis: Safety data were summarized using descriptive statistics by treatment. PK parameters for Compound I and its S-cis isomer were calculated using non-compartmental analysis using WinNonlin (Version 5.0.1 or greater; Pharsight Corporation, Mountain View, Calif.). Dose proportionality and dose independence were evaluated by visual inspection. Intra-subject variability was assessed using an ANOVA model using data from Days 10 and 14.

[3] = test system: time-mated female New Zealand White Hra:(NZW)SPF rabbits; settings: rabbit, in vivo, 10 mg/kg/day
Text: Additionally, four groups of five animals/group served as toxicokinetic (TK) animals and received the vehicle or test article in the same manner and dose levels as the main study groups. All time-mated females arrived at the laboratory on GD 0, the day evidence of mating was observed.

Q: For `O[C@H]1CC[C@H](Nc2ncc3nc(Nc4c(F)cc(F)cc4F)n([C@H]4CCOC4)c3n2)CC1` [Compound I, 4-((9-((3S)-tetrahydro-3-furanyl)-8-((2,4,6-trifluorophenyl)amino)-9H-purin-2-yl)amino)-trans-cyclohexanol], which NOAEL [1] is on record?
A: The NOAEL was 25 mg/kg/day.

Q: And the “doses at which developmental effects were observed” value ([2]; female, CD [Crl:CD(SD)], rat, in vivo)?
A: Its value is over 25 mg/kg/day.

Q: And the teratogenicity ([2]; rat, in vivo)?
A: The teratogenicity was “teratogenic”.

Q: And the maternal toxicity ([2]; rat, in vivo, 25 mg/kg/day)?
A: The maternal toxicity was “No maternal toxicity”.

Q: What about the “incidence of fetal malformations involving heart and aortic vessels, ribs, and/or vertebrae” value ([2]; rat, in vivo, 100 mg/kg/day) of the same compound?
A: Its value is “slight increase”.

Q: What about the “post implantation loss index” value ([2]; rat, in vivo, 100 mg/kg/day) of the same compound?
A: The value was “increased”.

Q: And the “fetal weights lower than controls” value ([2]; rat, in vivo, po, 25 mg/kg/day)?
A: Its value is “about 6%”.

Q: What about the “fetal body weights lower than controls” value ([2]; rat, in vivo, po, 50 mg/kg/day) of the same compound?
A: Its value is “about 11%”.

Q: What about the “fetal body weights lower than controls” value ([2]; rat, in vivo, po, 100 mg/kg/day) of the same compound?
A: Its value is about 27%.

Q: And the “NOEL for developmental toxicity” value ([2]; rats)?
A: Its value is 25 mg/kg/day.

Q: And the “lowest observed effect level (LOEL), developmental effects” value ([2]; rats)?
A: The value was 25 mg/kg/day.

Q: What about the “Dermatitis contact, number of subjects reporting TEAE” value (shortened to “Dermatitis contact, number”) (healthy volunteers; 25 mg QD for 14 days (N = 8)) of the same compound?
A: Its value is 0 n (%).

Q: What about the “Dizziness, number of subjects reporting TEAE” value (from here on “Dizziness, number”) (healthy volunteers; 25 mg QD for 14 days (N = 8)) of the same compound?
A: Its value is 0 n (%).

Q: What about the “Flatulence, number of subjects reporting TEAE” value (“Flatulence, number” below) (healthy volunteers; 25 mg QD for 14 days (N = 8)) of the same compound?
A: Its value is 0 n (%).

Q: And the “Headache, E = number of TEAE” value (healthy volunteers; 25 mg QD for 14 days (N = 8))?
A: Its value is 1.

Q: And the “Headache, number of subjects reporting TEAE” value (“Headache, number” below) (healthy volunteers; 25 mg QD for 14 days (N = 8))?
A: The value was 1 (12.5) n (%).

Q: What about the “Nasal congestion, E = number of TEAE” value (healthy volunteers; 25 mg QD for 14 days (N = 8)) of the same compound?
A: The value was 1.

Q: And the “Nasal congestion, number of subjects reporting TEAE” value (from here on “Nasal congestion, number”) (healthy volunteers; 25 mg QD for 14 days (N = 8))?
A: The value was 1 (12.5) n (%).

Q: What about the “Nausea, E = number of TEAE” value (healthy volunteers; 25 mg QD for 14 days (N = 8)) of the same compound?
A: Its value is 1.

Q: What about the “Nausea, number of subjects reporting TEAE” value (shortened to “Nausea, number”) (healthy volunteers; 25 mg QD for 14 days (N = 8)) of the same compound?
A: The value was 1 (12.5) n (%).

Q: And the “Pharyngolaryngeal pain, number of subjects reporting TEAE” value (from here on “Pharyngolaryngeal pain, number”) (healthy volunteers; 25 mg QD for 14 days (N = 8))?
A: Its value is 0 n (%).

Q: What about the “Rhinitis, number of subjects reporting TEAE” value (“Rhinitis, number” for short) (healthy volunteers; 25 mg QD for 14 days (N = 8)) of the same compound?
A: The value was 0 n (%).

Q: What about the “Total TEAEs, E = number of TEAE” value (healthy volunteers; 25 mg QD for 14 days (N = 8)) of the same compound?
A: The value was 6.

Q: And the “Total TEAEs, number of subjects reporting TEAE” value (shortened to “Total TEAEs, number”) (healthy volunteers; 25 mg QD for 14 days (N = 8))?
A: The value was 3 (37.5) n (%).

Q: And the “Dermatitis contact, E = number of TEAE” value (healthy volunteers; 50 mg QD for 14 days (N = 8))?
A: The value was 1.

Q: And the “Dermatitis contact, number” value (healthy volunteers; 50 mg QD for 14 days (N = 8))?
A: Its value is 1 (12.5) n (%).

Q: And the “Dizziness, number” value (healthy volunteers; 50 mg QD for 14 days (N = 8))?
A: The value was 0 n (%).

Q: What about the “Flatulence, E = number of TEAE” value (healthy volunteers; 50 mg QD for 14 days (N = 8)) of the same compound?
A: Its value is 4.

Q: And the “Flatulence, number” value (healthy volunteers; 50 mg QD for 14 days (N = 8))?
A: Its value is 2 (25.0) n (%).

Q: And the “Headache, E = number of TEAE” value (healthy volunteers; 50 mg QD for 14 days (N = 8))?
A: The value was 2.

Q: And the “Headache, number” value (healthy volunteers; 50 mg QD for 14 days (N = 8))?
A: The value was 2 (25.0) n (%).

Q: What about the “Nasal congestion, number” value (healthy volunteers; 50 mg QD for 14 days (N = 8)) of the same compound?
A: Its value is 0 n (%).

Q: What about the “Nausea, number” value (healthy volunteers; 50 mg QD for 14 days (N = 8)) of the same compound?
A: Its value is 0 n (%).

Q: And the “Pharyngolaryngeal pain, number” value (healthy volunteers; 50 mg QD for 14 days (N = 8))?
A: Its value is 0 n (%).

Q: What about the “Rhinitis, E = number of TEAE” value (healthy volunteers; 50 mg QD for 14 days (N = 8)) of the same compound?
A: Its value is 1.

Q: What about the “Rhinitis, number” value (healthy volunteers; 50 mg QD for 14 days (N = 8)) of the same compound?
A: Its value is 1 (12.5) n (%).

Q: And the “Total TEAEs, E = number of TEAE” value (healthy volunteers; 50 mg QD for 14 days (N = 8))?
A: Its value is 20.

Q: And the “Total TEAEs, number” value (healthy volunteers; 50 mg QD for 14 days (N = 8))?
A: Its value is 6 (75.0) n (%).

Q: And the “Dermatitis contact, number” value (healthy volunteers; 100 mg QD for 14 days (N = 8))?
A: Its value is 0 n (%).

Q: What about the “Dizziness, E = number of TEAE” value (healthy volunteers; 100 mg QD for 14 days (N = 8)) of the same compound?
A: The value was 2.

Q: And the “Dizziness, number” value (healthy volunteers; 100 mg QD for 14 days (N = 8))?
A: Its value is 2 (25.0) n (%).

Q: And the “Flatulence, number” value (healthy volunteers; 100 mg QD for 14 days (N = 8))?
A: The value was 0 n (%).

Q: What about the “Headache, E = number of TEAE” value (healthy volunteers; 100 mg QD for 14 days (N = 8)) of the same compound?
A: The value was 3.

Q: And the “Headache, number” value (healthy volunteers; 100 mg QD for 14 days (N = 8))?
A: The value was 3 (37.5) n (%).

Q: What about the “Nasal congestion, number” value (healthy volunteers; 100 mg QD for 14 days (N = 8)) of the same compound?
A: The value was 0 n (%).

Q: What about the “Nausea, number” value (healthy volunteers; 100 mg QD for 14 days (N = 8)) of the same compound?
A: Its value is 0 n (%).

Q: What about the “Pharyngolaryngeal pain, E = number of TEAE” value (healthy volunteers; 100 mg QD for 14 days (N = 8)) of the same compound?
A: The value was 1.

Q: What about the “Pharyngolaryngeal pain, number” value (healthy volunteers; 100 mg QD for 14 days (N = 8)) of the same compound?
A: Its value is 1 (12.5) n (%).

Q: What about the “Rhinitis, E = number of TEAE” value (healthy volunteers; 100 mg QD for 14 days (N = 8)) of the same compound?
A: The value was 1.

Q: And the “Rhinitis, number” value (healthy volunteers; 100 mg QD for 14 days (N = 8))?
A: Its value is 1 (12.5) n (%).

Q: And the “Total TEAEs, E = number of TEAE” value (healthy volunteers; 100 mg QD for 14 days (N = 8))?
A: Its value is 10.

Q: And the “Total TEAEs, number” value (healthy volunteers; 100 mg QD for 14 days (N = 8))?
A: Its value is 4 (50.0) n (%).

Q: And the “Dermatitis contact, E = number of TEAE” value (healthy volunteers; 200 mg QD for 14 days (N = 8))?
A: The value was 1.

Q: What about the “Dermatitis contact, number” value (healthy volunteers; 200 mg QD for 14 days (N = 8)) of the same compound?
A: Its value is 1 (12.5) n (%).

Q: What about the “Dizziness, E = number of TEAE” value (healthy volunteers; 200 mg QD for 14 days (N = 8)) of the same compound?
A: The value was 1.

Q: And the “Dizziness, number” value (healthy volunteers; 200 mg QD for 14 days (N = 8))?
A: The value was 1 (12.5) n (%).

Q: What about the “Flatulence, number” value (healthy volunteers; 200 mg QD for 14 days (N = 8)) of the same compound?
A: Its value is 0 n (%).

Q: What about the “Headache, number” value (healthy volunteers; 200 mg QD for 14 days (N = 8)) of the same compound?
A: Its value is 0 n (%).

Q: What about the “Nasal congestion, E = number of TEAE” value (healthy volunteers; 200 mg QD for 14 days (N = 8)) of the same compound?
A: The value was 1.

Q: And the “Nasal congestion, number” value (healthy volunteers; 200 mg QD for 14 days (N = 8))?
A: The value was 1 (12.5) n (%).

Q: What about the “Nausea, E = number of TEAE” value (healthy volunteers; 200 mg QD for 14 days (N = 8)) of the same compound?
A: The value was 3.

Q: What about the “Nausea, number” value (healthy volunteers; 200 mg QD for 14 days (N = 8)) of the same compound?
A: Its value is 1 (12.5) n (%).

Q: And the “Pharyngolaryngeal pain, E = number of TEAE” value (healthy volunteers; 200 mg QD for 14 days (N = 8))?
A: Its value is 1.

Q: And the “Pharyngolaryngeal pain, number” value (healthy volunteers; 200 mg QD for 14 days (N = 8))?
A: Its value is 1 (12.5) n (%).

Q: And the “Rhinitis, number” value (healthy volunteers; 200 mg QD for 14 days (N = 8))?
A: Its value is 0 n (%).

Q: What about the “Total TEAEs, E = number of TEAE” value (healthy volunteers; 200 mg QD for 14 days (N = 8)) of the same compound?
A: Its value is 15.

Q: What about the “Total TEAEs, number” value (healthy volunteers; 200 mg QD for 14 days (N = 8)) of the same compound?
A: The value was 3 (37.5) n (%).

Q: What about the “serious or severe TEAE” value (healthy volunteers; 25-200 mg QD for 14 days) of the same compound?
A: The value was “no serious or severe TEAE was reported”.

Q: What about the “subjects reporting treatment-emergent adverse events” value (healthy volunteers; active, 25-200 mg QD for 14 days) of the same compound?
A: Its value is 16/32.

Q: What about the tolerability (healthy volunteers; doses up to 200 mg QD for 14 days) of the same compound?
A: Its tolerability is “well tolerated”.

Q: What about the “maternal or developmental toxicity” value [3] of the same compound?
A: The value was “No maternal or developmental toxicity”.
